One may read the IC50 as the midpoint of a concentration-inhibition curve.

The test concerns the target T1, human kinase Mps-1 (Homo sapiens, UniProt P33981).
T1 construct: N-terminally GST-tagged human full length recombinant Mps-1 kinase; purchased Invitrogen, Karslruhe, Germany PV4071
T1 sequence (P33981 1-857): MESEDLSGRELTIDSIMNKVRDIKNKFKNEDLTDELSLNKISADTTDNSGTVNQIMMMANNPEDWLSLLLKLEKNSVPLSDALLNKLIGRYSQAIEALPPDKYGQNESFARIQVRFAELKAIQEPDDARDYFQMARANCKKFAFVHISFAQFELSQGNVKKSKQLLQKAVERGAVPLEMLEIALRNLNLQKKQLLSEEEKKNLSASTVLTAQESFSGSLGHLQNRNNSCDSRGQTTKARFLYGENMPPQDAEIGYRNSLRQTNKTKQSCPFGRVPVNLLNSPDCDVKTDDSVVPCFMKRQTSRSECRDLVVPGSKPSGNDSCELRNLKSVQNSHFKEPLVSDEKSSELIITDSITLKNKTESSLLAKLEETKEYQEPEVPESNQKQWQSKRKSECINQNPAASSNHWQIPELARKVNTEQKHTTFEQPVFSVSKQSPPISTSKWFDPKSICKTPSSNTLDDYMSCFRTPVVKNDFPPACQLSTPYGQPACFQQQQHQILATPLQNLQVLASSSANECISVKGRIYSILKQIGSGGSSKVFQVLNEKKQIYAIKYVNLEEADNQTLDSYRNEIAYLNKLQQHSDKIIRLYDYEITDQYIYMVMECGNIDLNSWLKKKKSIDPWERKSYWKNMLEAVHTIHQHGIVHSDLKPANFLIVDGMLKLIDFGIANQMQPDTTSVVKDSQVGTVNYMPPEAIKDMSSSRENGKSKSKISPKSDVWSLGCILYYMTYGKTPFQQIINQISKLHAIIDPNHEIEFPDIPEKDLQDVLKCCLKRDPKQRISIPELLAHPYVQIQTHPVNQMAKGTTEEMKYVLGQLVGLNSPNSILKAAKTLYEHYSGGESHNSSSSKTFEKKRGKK
The experiment in a line: Mps-1 kinase assay (HTRF). It is filed as biochemical. The conditions noted are these: lowATP; mean; read-out: Mps1 lowATP mean IC50. In a few lines:
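HTRF readout: EDTA-stopped reactions incubated 1 h with europium anti-phospho(Ser/Thr) antibody and streptavidin-XLent, emission ratio 665/620 nm after 350 nm excitation. Kinase step: compound pre-bound 15 min to ~1 nM GST-Mps-1, then 60 min at 22 °C with ATP and biotin-peptide substrate; inhibition scaled between no-inhibitor (0%) and no-enzyme (100%) controls.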
Consider `Cc1cc2nc(NCCCn3ccnc3)c3ncc(-c4ccc(C(=O)NC5CC5)c(Cl)c4)n3c2cc1C` [Example 2-189, 2-chloro-N-cyclopropyl-4-(4-{[3-(1H-imidazol-1-yl)propyl]amino}-7,8-dimethylimidazo[1,2-a]quinoxalin-1-yl)benzamide], for which the IC50 is 82.7 nM.
Regarding `Cc1cc2nc(NCC3CC3)c3ncc(-c4ccc(C(=O)NC5CC5)c(Cl)c4)n3c2cc1C` [Example 2-190, 2-chloro-N-cyclopropyl-4-{4-[(cyclopropylmethyl)amino]-7,8-dimethylimidazo[1,2-a]quinoxalin-1-yl}benzamide], the IC50 came to 43.5 nM.
Turning to `Cc1cc2nc(NCc3ccccn3)c3ncc(-c4ccc(C(=O)NC5CC5)c(Cl)c4)n3c2cc1C` [Example 2-191, 2-chloro-N-cyclopropyl-4-{7,8-dimethyl-4-[(pyridin-2-ylmethyl)amino]imidazo[1,2-a]quinoxalin-1-yl}benzamide], the concentration for half-maximal inhibition (IC50) amounted to 251 nM.
Turning to `Cc1cc2nc(NCc3cccnc3)c3ncc(-c4ccc(C(=O)NC5CC5)c(Cl)c4)n3c2cc1C` [Example 2-192, 2-chloro-N-cyclopropyl-4-{7,8-dimethyl-4-[(pyridin-3-ylmethyl)amino]imidazo[1,2-a]quinoxalin-1-yl}benzamide], the IC50 is 35.5 nM.
`Cc1cc2nc(NCc3ccncc3)c3ncc(-c4ccc(C(=O)NC5CC5)c(Cl)c4)n3c2cc1C` [Example 2-193, 2-chloro-N-cyclopropyl-4-{7,8-dimethyl-4-[(pyridin-4-ylmethyl)amino]imidazo[1,2-a]quinoxalin-1-yl}benzamide]: the IC50 is 51.2 nM.
Regarding `Cc1cc2nc(NCC(C)C)c3ncc(-c4ccc(C(=O)NC5CC5)c(Cl)c4)n3c2cc1C` [Example 2-194, 2-chloro-N-cyclopropyl-4-{7,8-dimethyl-4-[(2-methylpropyl)amino]imidazo[1,2-a]quinoxalin-1-yl}benzamide], the IC50 was 22.7 nM.
On to `Cc1cc2nc(NCCC(N)=O)c3ncc(-c4ccc(C(=O)NC5CC5)c(Cl)c4)n3c2cc1C` [Example 2-195, 4-{4-[(3-amino-3-oxopropyl)amino]-7,8-dimethylimidazo[1,2-a]quinoxalin-1-yl}-2-chloro-N-cyclopropylbenzamide], for which the IC50 turned out to be 218 nM.
On to `COCCCNc1nc2cc(C)c(C)cc2n2c(-c3ccc(C(=O)NC4CC4)c(Cl)c3)cnc12` [Example 2-196, 2-chloro-N-cyclopropyl-4-{4-[(3-methoxypropyl)amino]-7,8-dimethylimidazo[1,2-a]quinoxalin-1-yl}benzamide], for which the IC50 stood at 140 nM.
With `Cc1cc2nc(NCCCNC(=O)OC(C)(C)C)c3ncc(-c4ccc(C(=O)NC5CC5)c(Cl)c4)n3c2cc1C` [Example 2-197, tert-butyl [3-({1-[3-chloro-4-(cyclopropylcarbamoyl)phenyl]-7,8-dimethylimidazo[1,2-a]quinoxalin-4-yl}amino)propyl]carbamate], the IC50 is 50.5 nM.
As to `Cc1cc2nc(NCc3ccn(C)n3)c3ncc(-c4ccc(C(=O)NC5CC5)c(Cl)c4)n3c2cc1C` [Example 2-198, 2-chloro-N-cyclopropyl-4-(7,8-dimethyl-4-{[(1-methyl-1H-pyrazol-3-yl)methyl]amino}imidazo[1,2-a]quinoxalin-1-yl)benzamide], the IC50 is 127 nM.
For `Cc1cc2nc(NCc3ccnn3C)c3ncc(-c4ccc(C(=O)NC5CC5)c(Cl)c4)n3c2cc1C` [Example 2-199, 2-chloro-N-cyclopropyl-4-(7,8-dimethyl-4-{[(1-methyl-1H-pyrazol-5-yl)methyl]amino}imidazo[1,2-a]quinoxalin-1-yl)benzamide], the IC50 was 25.9 nM.
Turning to `Cc1cc2nc(NCc3cnn(C)c3)c3ncc(-c4ccc(C(=O)NC5CC5)c(Cl)c4)n3c2cc1C` [Example 2-200, 2-chloro-N-cyclopropyl-4-(7,8-dimethyl-4-{[(1-methyl-1H-pyrazol-4-yl)methyl]amino}imidazo[1,2-a]quinoxalin-1-yl)benzamide], the IC50 amounted to 67.6 nM.
As to `Cc1cc2nc(NCCS(N)(=O)=O)c3ncc(-c4ccc(C(=O)NC5CC5)c(Cl)c4)n3c2cc1C` [Example 2-201, 2-chloro-N-cyclopropyl-4-{7,8-dimethyl-4-[(2-sulfamoylethyl)amino]imidazo[1,2-a]quinoxalin-1-yl}benzamide], the IC50 came out at 62.3 nM.
As for `Cc1cc2nc(NCC(O)CO)c3ncc(-c4ccc(C(=O)NC5CC5)c(Cl)c4)n3c2cc1C` (stereo not shown) [Example 2-202, 2-chloro-N-cyclopropyl-4-{4-[(2,3-dihydroxypropyl)amino]-7,8-dimethylimidazo[1,2-a]quinoxalin-1-yl}benzamide], the figure is 335 nM.
In the case of `CCCNc1nc2cc(C#N)ccc2n2c(-c3ccc(C(=O)NC4CC4)cc3)cnc12` [Example 2-203, 4-[7-cyano-4-(propylamino)imidazo[1,2-a]quinoxalin-1-yl]-N-cyclopropylbenzamide], the IC50 came out at 11.1 nM.
Regarding `N#Cc1ccc2c(c1)nc(NCCO)c1ncc(-c3ccc(C(=O)NC4CC4)cc3)n12` [Example 2-204, 4-{7-cyano-4-[(2-hydroxyethyl)amino]imidazo[1,2-a]quinoxalin-1-yl}-N-cyclopropylbenzamide], the IC50 was found to be 77.6 nM.
Take `N#Cc1ccc2c(c1)nc(NCCCN1CCOCC1)c1ncc(-c3ccc(C(=O)NC4CC4)cc3)n12` [Example 2-205, 4-(7-cyano-4-{[3-(morpholin-4-yl)propyl]amino}imidazo[1,2-a]quinoxalin-1-yl)-N-cyclopropylbenzamide]: the IC50 was determined as 413 nM.
For the molecule `N#Cc1ccc2c(c1)nc(NCc1cccc(F)c1)c1ncc(-c3ccc(C(=O)NC4CC4)cc3)n12` [Example 2-206, 4-{7-cyano-4-[(3-fluorobenzyl)amino]imidazo[1,2-a]quinoxalin-1-yl}-N-cyclopropylbenzamide], the IC50 came to 50.7 nM.
As for `N#Cc1ccc2c(c1)nc(NCCCN1CCCC1=O)c1ncc(-c3ccc(C(=O)NC4CC4)cc3)n12` [Example 2-207, 4-(7-cyano-4-{[3-(2-oxopyrrolidin-1-yl)propyl]amino}imidazo[1,2-a]quinoxalin-1-yl)-N-cyclopropylbenzamide], the IC50 amounted to 195 nM.
Turning to `COCCNc1nc2cc(C#N)ccc2n2c(-c3ccc(C(=O)NC4CC4)cc3)cnc12` [Example 2-208, 4-{7-cyano-4-[(2-methoxyethyl)amino]imidazo[1,2-a]quinoxalin-1-yl}-N-cyclopropylbenzamide], the IC50 came out at 79.5 nM.
As for `N#Cc1ccc2c(c1)nc(NCC(F)(F)F)c1ncc(-c3ccc(C(=O)NC4CC4)cc3)n12` [Example 2-209, 4-{7-cyano-4-[(2,2,2-trifluoroethyl)amino]imidazo[1,2-a]quinoxalin-1-yl}-N-cyclopropylbenzamide], the IC50 is 28.9 nM.
For `CCNc1nc2cc(C#N)ccc2n2c(-c3ccc(C(=O)NC4CC4)cc3)cnc12` [Example 2-210, 4-[7-cyano-4-(ethylamino)imidazo[1,2-a]quinoxalin-1-yl]-N-cyclopropylbenzamide], the IC50 was 35.9 nM.
Turning to `N#Cc1ccc2c(c1)nc(NCCCO)c1ncc(-c3ccc(C(=O)NC4CC4)cc3)n12` [Example 2-211, 4-{7-cyano-4-[(3-hydroxypropyl)amino]imidazo[1,2-a]quinoxalin-1-yl}-N-cyclopropylbenzamide], the IC50 was found to be 32.9 nM.
As for `CCCCNc1nc2cc(C#N)ccc2n2c(-c3ccc(C(=O)NC4CC4)cc3)cnc12` [Example 2-212, 4-[4-(butylamino)-7-cyanoimidazo[1,2-a]quinoxalin-1-yl]-N-cyclopropylbenzamide], the IC50 was 10 nM.
Regarding `N#Cc1ccc2c(c1)nc(NCc1ccccn1)c1ncc(-c3ccc(C(=O)NC4CC4)cc3)n12` [Example 2-213, 4-{7-cyano-4-[(pyridin-2-ylmethyl)amino]imidazo[1,2-a]quinoxalin-1-yl}-N-cyclopropylbenzamide], the IC50 turned out to be 106 nM.
With `N#Cc1ccc2c(c1)nc(NCc1cccnc1)c1ncc(-c3ccc(C(=O)NC4CC4)cc3)n12` [Example 2-214, 4-{7-cyano-4-[(pyridin-3-ylmethyl)amino]imidazo[1,2-a]quinoxalin-1-yl}-N-cyclopropylbenzamide], the IC50 turned out to be 28.8 nM.
On to `N#Cc1ccc2c(c1)nc(NCc1ccco1)c1ncc(-c3ccc(C(=O)NC4CC4)cc3)n12` [Example 2-215, 4-{7-cyano-4-[(furan-2-ylmethyl)amino]imidazo[1,2-a]quinoxalin-1-yl}-N-cyclopropylbenzamide], for which the IC50 is 24.8 nM.
On to `CC(C)CNc1nc2cc(C#N)ccc2n2c(-c3ccc(C(=O)NC4CC4)cc3)cnc12` [Example 2-216, 4-{7-cyano-4-[(2-methylpropyl)amino]imidazo[1,2-a]quinoxalin-1-yl}-N-cyclopropylbenzamide], for which the IC50 amounted to 9.56 nM.

Values taken from US8729082B2, “Substituted imidazoquinoxalines” (Bayer Intellectual Property GmbH, priority 2009, dated 2014).
